In US20060121072A1, “Topical parasiticide formulations and methods of treatment” (priority 2002, published 2006):

Legend:
[1] = Plasma pharmacokinetics of ivermectin in cattle; format: in vivo
Description: (§1) Formulations according to the invention were tested for their efficacy in delivering benzimidazoles and macrocyclic lactones to the bloodstream of mammals (cattle), and compared to the efficacy in delivering these agents to animals' bloodstreams by standard commercially available drench (Fasinex 120®), and an experimental solvent-based triclabendazole/ivermectin pour-on formulation.
(§2) Cattle (typically Hereford or Hereford cross) with either natural or artificially infected burdens of fluke and nematodes were used in pen and field trials. Within a given trial animals were allotted into treatment groups, each having similar mean weights and fluke and nematode burdens. Experimental treatments were applied along the backline using a commercially available backliner gun fitted with a plastic shroud to ensure correct delivery of the formulation according to the protocol.
(§3) Blood samples (plasma) were taken by venipuncture of the jugular vein at the designated time intervals. Analysis for triclabendazole and ivermectin residues in the plasma was carried out and reported by commercial contract laboratories.
Ivermectin was extracted from the plasma using acetonitrile and concentrated by evaporation. The sample was cleaned up by solid phase extraction (SPE) chromatography and the ivermectin determined as the N-methyl imidazole derivative using reverse phase HPLC with fluorescence detection.

[2] = Plasma pharmacokinetics of triclabendazole (with sulphone and sulphoxide metabolites) in cattle; format: in vivo
Description: as §1
as §2, with “Within a given trial animals were allotted into treatment groups, each having similar mean weights and fluke and nematode burdens.” left out
as §3
The triclabendazole was extracted from the plasma using ethyl acetate. Following concentration and SPE clean up, the triclabendazole and its sulphone and sulphoxide metabolites were analysed by reverse phase HPLC using UV detection.

[3] = Table 2 pour-on 90 g/L triclabendazole + 10.0 g/L ivermectin, 1 mL/10 kg, 1.0 mg/kg
[4] = Table 2 pour-on 120 g/L triclabendazole + 5.0 g/L ivermectin, 1 mL/10 kg, 0.5 mg/kg
[5] = Table 2 pour-on 180 g/L triclabendazole + 7.5 g/L ivermectin, 1 mL/10 kg, 0.75 mg/kg
[6] = Table 3 pour-on 240 g/L triclabendazole + 3.33 g/L ivermectin (triethanolamine), 1 ml/6.67 kg, 0.5 mg/kg
[7] = Table 3 pour-on 240 g/L triclabendazole + 5 g/L ivermectin (sodium dodecyl sulphate), 1 ml/10 kg, 0.5 mg/kg
[8] = Table 3 pour-on 240 g/L triclabendazole + 10 g/L ivermectin (triethanolamine), 1 ml/20 kg, 0.5 mg/kg
[9] = Table 4 pour-on 180 g/L triclabendazole + 7.5 g/L ivermectin, 1 mL/15 kg, mean treatment area 110 cm^2, 0.5 mg/kg
[10] = Table 4 pour-on 240 g/L triclabendazole + 10.0 g/L ivermectin, 1 mL/20 kg, mean treatment area 76 cm^2, 0.5 mg/kg

22,23-dihydroavermectin B1 [Ivermectin]
Ivermectin AUC [1, 3]: 88 ng·days/mL
Ivermectin Mean plasma [1, 3]: 4.4 ng/mL
Ivermectin Plasma Cmax [1, 3]: 8 ng/mL
Ivermectin Tmax [1, 3]: 120 h
Ivermectin AUC [1, 4]: 52 ng·days/mL
Ivermectin Mean plasma [1, 4]: 2.5 ng/mL
Ivermectin Plasma Cmax [1, 4]: 8 ng/mL
Ivermectin Tmax [1, 4]: 120 h
Ivermectin AUC [1, 5]: 79 ng·days/mL
Ivermectin Mean plasma [1, 5]: 4.1 ng/mL
Ivermectin Plasma Cmax [1, 5]: 13 ng/mL
Ivermectin Tmax [1, 5]: 120 h
Ivermectin AUC [1, 6]: 82 ng·days/mL
Ivermectin Plasma Cmax [1, 6]: 7.5 ng/mL
Ivermectin Tmax [1, 6]: 170 h
Ivermectin AUC [1, 7]: 84 ng·days/mL
Ivermectin Plasma Cmax [1, 7]: 9.5 ng/mL
Ivermectin Tmax [1, 7]: 120 h
Ivermectin AUC [1, 8]: 104 ng·days/mL
Ivermectin Plasma Cmax [1, 8]: 10.4 ng/mL
Ivermectin Tmax [1, 8]: 170 h
Ivermectin AUC [1, 9]: 30 ng·days/mL
Ivermectin Mean plasma conc^n [1, 9]: 1.7 ng/mL
Ivermectin AUC [1, 10]: 43 ng·days/mL
Ivermectin Mean plasma conc^n [1, 10]: 2.2 ng/mL

CSc1nc2cc(Cl)c(Oc3cccc(Cl)c3Cl)cc2[nH]1 [Triclabendazole, 5-chloro-6-(2,3-dichlorophenoxy)-2-(methylthio)-benzimidazole]
Triclabendazole AUC ([2]; Table 2 pour-on 90 g/L triclabendazole + 10.0 g/L ivermectin, 1 mL/10 kg, 9.0 mg/kg): 72 µg·days/mL
Triclabendazole AUC ([2]; Table 2 pour-on 120 g/L triclabendazole + 5.0 g/L ivermectin, 1 mL/10 kg, 12 mg/kg): 85 µg·days/mL
Triclabendazole AUC ([2]; Table 2 pour-on 180 g/L triclabendazole + 7.5 g/L ivermectin, 1 mL/10 kg, 18 mg/kg): 139 µg·days/mL
Triclabendazole AUC ([2]; Table 3 pour-on 240 g/L triclabendazole + 3.33 g/L ivermectin (triethanolamine), 1 ml/6.67 kg, 36 mg/kg): 177 µg·days/mL
Triclabendazole AUC ([2]; Table 3 pour-on 240 g/L triclabendazole + 5 g/L ivermectin (sodium dodecyl sulphate), 1 ml/10 kg, 24 mg/kg): 129 µg·days/mL
Triclabendazole AUC ([2]; Table 3 pour-on 240 g/L triclabendazole + 10 g/L ivermectin (triethanolamine), 1 ml/20 kg, 12 mg/kg): 73 µg·days/mL
Triclabendazole AUC ([2]; Table 4 pour-on 180 g/L triclabendazole + 7.5 g/L ivermectin, 1 mL/15 kg, mean treatment area 110 cm^2, 12.0 mg/kg): 65 µg·days/mL
Triclabendazole AUC ([2]; Table 4 pour-on 240 g/L triclabendazole + 10.0 g/L ivermectin, 1 mL/20 kg, mean treatment area 76 cm^2, 12.0 mg/kg): 170 µg·days/mL
